Design in all cases: agar dilution MIC, growth inhibition of clinical Burkholderia isolates
On the technique in general: Agar dilution tests growth on a series of plates holding different concentrations.

The test system of one assay is T1, B. cenocepacia AU0583.
T1 construct: AU0583
As to the kind of experiment: microbe, parasite or virus in culture. As to conditions: Burkholderia cenocepacia, AU0583. From the text:
(§1) We evaluated the activity of cefepime-taniborbactam against a panel of 140 Bcc clinical isolates (i.e., species ambifaria, arboris, cenocepacia, cepacia, contaminans, diffusa, dolosa, multivorans, pseudomultivorans, pyrrocinia, seminalis, stabilis, ubonensis, and vietnamiensis) and 10 B. gladioli from the Burkholderia cepacia Research Laboratory and Repository (University of Michigan) ([22], [25], [31]) (Supplementary Material, Tables S1 and S2). K. pneumoniae ATCC 700603 carrying bla SHV-18 and K. pneumoniae ATCC BAA-1705 harboring bla KPC strains were used as controls for β-lactam and β-lactamase inhibitor integrity; all controls tested within the anticipated quality control ranges (Table S3). Minimum inhibitory concentration (MIC) results were interpreted using Clinical Laboratory Standards Institute (CLSI) breakpoints, where available ([32]). […] An alternative cefepime-taniborbactam provisional susceptible breakpoint of ≤16 µg/mL is supported by in vivo efficacy data from neutropenic murine infection models (thigh, complicated urinary tract, and lung) ([15] [–] [17]) and data from safety and pharmacokinetics studies in human volunteers ([33], [34]). The cefepime-taniborbactam antimicrobial activity was compared to cefepime, meropenem, meropenem-vaborbactam, and levofloxacin, to data published for first-line agents (e.g., ceftazidime and trimethoprim-sulfamethoxazole) and to those recommended by the CLSI for clinical testing (e.g., minocycline) against the Bcc and B. gladioli panel ([22], [32]). Of note, the MICs of all these agents were determined by the agar dilution method, which alongside broth microdilution, are recommended by the CLSI to assess the antimicrobial susceptibility of Bcc isolates ([32]).

In the next assay the test system is T2, B. contaminans AU2244.
T2 construct: AU2244
As to the kind of experiment: organism not typed.
From the text: as §1

Another assay deals with T3, B. cepacia AU13163.
T3 construct: AU13163
As to the kind of experiment: microbe, parasite or virus in culture. Particulars: Burkholderia cepacia, AU13163.
From the text: as §1

In a further assay the test system is T4, B. gladioli AU0032.
T4 construct: AU0032
As to the kind of experiment: organism not typed.
From the text: as §1

The test system of a further assay is T5, B. vietnamiensis AU21549.
T5 construct: AU21549
As to the kind of experiment: microbe, parasite or virus in culture. As to conditions: Burkholderia vietnamiensis, AU21549.
From the text: as §1

Another assay deals with T6, B. vietnamiensis AU5003.
T6 construct: AU5003
As to the kind of experiment: microbe, parasite or virus in culture. Particulars: Burkholderia vietnamiensis, AU5003.
From the text: as §1

The next assay relates to T7, B. multivorans AU14364.
T7 construct: AU14364
As to the kind of experiment: microbe, parasite or virus in culture. Particulars: Burkholderia multivorans, AU14364.
From the text: as §1

A further assay relates to T8, B. multivorans AU19564.
T8 construct: AU19564
As to the kind of experiment: microbe, parasite or virus in culture. Particulars: Burkholderia multivorans, AU19564.
From the text: as §1

For a further assay, the system named is T9, B. cenocepacia AU9215.
T9 construct: AU9215
As to the kind of experiment: microbe, parasite or virus in culture. As to conditions: Burkholderia cenocepacia, AU9215.
From the text: as §1

For a further assay, the system named is T10, B. vietnamiensis AU19457.
T10 construct: AU19457
As to the kind of experiment: microbe, parasite or virus in culture. As to conditions: Burkholderia vietnamiensis, AU19457.
From the text: as §1

Another assay deals with T11, B. cepacia AU27816.
T11 construct: AU27816
As to the kind of experiment: microbe, parasite or virus in culture. As to conditions: Burkholderia cepacia, AU27816.
From the text: as §1

A further assay has as its system T12, B. cepacia AU17630.
T12 construct: AU17630
As to the kind of experiment: microbe, parasite or virus in culture. As to conditions: Burkholderia cepacia, AU17630.
From the text: as §1

Assay [1] deals with T13, B. pseudomultivorans AU19682.
T13 construct: AU19682
As to the kind of experiment: organism not typed.
From the text: as §1

The test system of a further assay is T14, B. contaminans AU21811.
T14 construct: AU21811
As to the kind of experiment: organism not typed.
From the text: as §1

The next assay concerns T15, B. cenocepacia AU9512.
T15 construct: AU9512
As to the kind of experiment: microbe, parasite or virus in culture. Particulars: Burkholderia cenocepacia, AU9512.
From the text: as §1

For the next assay, the system named is T16, B. multivorans AU18096.
T16 construct: AU18096
As to the kind of experiment: microbe, parasite or virus in culture. Particulars: Burkholderia multivorans, AU18096.
From the text: as §1

Another assay deals with T17, B. cenocepacia AU13262.
T17 construct: AU13262
As to the kind of experiment: microbe, parasite or virus in culture. As to conditions: Burkholderia cenocepacia, AU13262.
From the text: as §1

For another assay, the system named is T18, B. gladioli AU21101.
T18 construct: AU21101
As to the kind of experiment: organism not typed.
From the text: as §1

A further assay has as its system T19, B. multivorans AU19729.
T19 construct: AU19729
As to the kind of experiment: microbe, parasite or virus in culture. Particulars: Burkholderia multivorans, AU19729.
From the text: as §1

Another assay deals with T20, B. multivorans AU20929.
T20 construct: AU20929
As to the kind of experiment: microbe, parasite or virus in culture. As to conditions: Burkholderia multivorans, AU20929.
From the text: as §1

The test system of assay [2] is T21, Burkholderia cepacia complex Bcc Indeterminate AU12560.
T21 construct: AU12560
As to the kind of experiment: microbe, parasite or virus in culture. As to conditions: Burkholderia cepacia.
From the text: as §1

Another assay has as its system T22, B. gladioli AU26456.
T22 construct: AU26456
As to the kind of experiment: organism not typed.
From the text: as §1

The next assay concerns T23, B. cepacia AU23707.
T23 construct: AU23707
As to the kind of experiment: microbe, parasite or virus in culture. As to conditions: Burkholderia cepacia, AU23707.
From the text: as §1

SMILES strings stand for the structures. Converted amounts (≈) assume the structure as drawn. Bounds are passed on as bounds.

As to `CO/N=C(\C(=O)N[C@@H]1C(=O)N2C(C(=O)[O-])=C(C[N+]3(C)CCCC3)CS[C@H]12)c1csc(N)n1` [cefepime], the MIC against B. cenocepacia AU0583 is 32 µg/mL (≈ 66.6 µM); in the assay on B. contaminans AU2244 it was 16 µg/mL (≈ 33.3 µM); against B. cepacia AU13163, 16 µg/mL (≈ 33.3 µM); with B. gladioli AU0032, over 32 µg/mL; in the assay with B. vietnamiensis AU21549 it was 2 µg/mL (≈ 4.16 µM); in the assay on B. vietnamiensis AU5003, over 32 µg/mL. In addition, the MIC against B. multivorans AU14364 is over 32 µg/mL; in the assay with B. multivorans AU19564, 16 µg/mL (≈ 33.3 µM); with B. cenocepacia AU9215, over 32 µg/mL; in the assay with B. vietnamiensis AU19457 it was over 32 µg/mL; against B. cepacia AU27816 it was 16 µg/mL (≈ 33.3 µM); with B. cepacia AU17630, over 32 µg/mL. Also, the MIC in [1] is over 32 µg/mL; in the assay on B. contaminans AU21811, over 32 µg/mL; in the assay on B. cenocepacia AU9512, 32 µg/mL (≈ 66.6 µM); against B. multivorans AU18096, 2 µg/mL (≈ 4.16 µM); against B. cenocepacia AU13262 it was over 32 µg/mL; against B. gladioli AU21101, 16 µg/mL (≈ 33.3 µM). Also, the MIC with B. multivorans AU19729 is over 32 µg/mL; in the assay on B. multivorans AU20929 it was 8 µg/mL (≈ 16.6 µM); in assay [2], 32 µg/mL (≈ 66.6 µM); against B. gladioli AU26456 it was 4 µg/mL (≈ 8.32 µM); in the assay on B. cepacia AU23707, 32 µg/mL (≈ 66.6 µM).
As to `C[C@H]1COc2c(N3CCN(C)CC3)c(F)cc3c(=O)c(C(=O)O)cn1c23` [levofloxacin], the MIC is over 32 µg/mL in the assay on B. cenocepacia AU0583; 4 µg/mL (≈ 11.1 µM) in the assay with B. contaminans AU2244; 2 µg/mL (≈ 5.53 µM) with B. cepacia AU13163; 8 µg/mL (≈ 22.1 µM) with B. gladioli AU0032; 4 µg/mL (≈ 11.1 µM) against B. vietnamiensis AU21549; 8 µg/mL (≈ 22.1 µM) in the assay with B. vietnamiensis AU5003. Also, the MIC with B. multivorans AU14364 came to 32 µg/mL (≈ 88.6 µM); with B. multivorans AU19564 it was 8 µg/mL (≈ 22.1 µM); in the assay with B. cenocepacia AU9215, 32 µg/mL (≈ 88.6 µM); in the assay with B. vietnamiensis AU19457 it was 16 µg/mL (≈ 44.3 µM); in the assay with B. cepacia AU27816, 4 µg/mL (≈ 11.1 µM); against B. cepacia AU17630 it was 4 µg/mL (≈ 11.1 µM). Moreover, the MIC was 16 µg/mL (≈ 44.3 µM) in assay [1]; 8 µg/mL (≈ 22.1 µM) in the assay on B. contaminans AU21811; 16 µg/mL (≈ 44.3 µM) with B. cenocepacia AU9512; 4 µg/mL (≈ 11.1 µM) against B. multivorans AU18096; 4 µg/mL (≈ 11.1 µM) in the assay on B. cenocepacia AU13262; 1 µg/mL (≈ 2.77 µM) in the assay on B. gladioli AU21101. Besides, the MIC with B. multivorans AU19729 was found to be 16 µg/mL (≈ 44.3 µM); with B. multivorans AU20929, 4 µg/mL (≈ 11.1 µM); in [2], 8 µg/mL (≈ 22.1 µM); in the assay on B. gladioli AU26456, 0.5 µg/mL (≈ 1.38 µM); in the assay with B. cepacia AU23707, 32 µg/mL (≈ 88.6 µM).
With `C[C@@H](O)[C@H]1C(=O)N2C(C(=O)O)=C(S[C@@H]3CN[C@H](C(=O)N(C)C)C3)[C@H](C)[C@H]12` [meropenem], the MIC was found to be 4 µg/mL (≈ 10.4 µM) against B. cenocepacia AU0583; 4 µg/mL (≈ 10.4 µM) against B. contaminans AU2244; 4 µg/mL (≈ 10.4 µM) against B. cepacia AU13163; 2 µg/mL (≈ 5.22 µM) against B. gladioli AU0032; 0.5 µg/mL (≈ 1.3 µM) against B. vietnamiensis AU21549; 4 µg/mL (≈ 10.4 µM) in the assay on B. vietnamiensis AU5003. In addition, the MIC with B. multivorans AU14364 came to 4 µg/mL (≈ 10.4 µM); against B. multivorans AU19564 it was 4 µg/mL (≈ 10.4 µM); in the assay with B. cenocepacia AU9215, 16 µg/mL (≈ 41.7 µM); with B. vietnamiensis AU19457, 4 µg/mL (≈ 10.4 µM); in the assay on B. cepacia AU27816, 4 µg/mL (≈ 10.4 µM); against B. cepacia AU17630, 4 µg/mL (≈ 10.4 µM). The MIC in assay [1] was 8 µg/mL (≈ 20.9 µM); against B. contaminans AU21811 it was 16 µg/mL (≈ 41.7 µM); in the assay with B. cenocepacia AU9512, 4 µg/mL (≈ 10.4 µM); with B. multivorans AU18096, 1 µg/mL (≈ 2.61 µM); in the assay on B. cenocepacia AU13262, 4 µg/mL (≈ 10.4 µM); against B. gladioli AU21101, 1 µg/mL (≈ 2.61 µM). Moreover, the MIC against B. multivorans AU19729 turned out to be 16 µg/mL (≈ 41.7 µM); with B. multivorans AU20929, 8 µg/mL (≈ 20.9 µM); in assay [2], 4 µg/mL (≈ 10.4 µM); against B. gladioli AU26456, 1 µg/mL (≈ 2.61 µM); in the assay on B. cepacia AU23707, 8 µg/mL (≈ 20.9 µM).

These data come from article PMC10648927, “Examining the activity of cefepime-taniborbactam against Burkholderia cepacia complex and Burkholderia gladioli isolated from cystic fibrosis patients in the United States” (Antimicrobial Agents and Chemotherapy, 2023).
